{"source": "patent US20260184807A1", "about": "“Methods for Treating Rheumatoid Arthritis Using a Syndecan-1 Inhibitor or Syntenin-1 Inhibitor” (The United States Government as represented by the …, priority 2022, published 2026)", "key": {"[1]": {"test_system": "RA FLS", "assay": "RA FLS scratch assay", "type": "cell-based, human", "conditions": "Syntenin-1 1000 ng/ml 24 h; SDC1-Ab 1:100, mTORi 1 μM, HIF1αi 2 μM; FIGS. 16J-K", "experimental": "RA STs were fluorescently stained to authenticate the colocalization of Mitofusin (MFN2) (FIGS. 16A-B) and DRP1 (FIGS. 16C-D) expression on Vimentin^+ FLS in the presence or absence of DAPI, (n=3, original magnification×60 or 500). RA FLS were treated with Syntenin-1 (1000 ng/ml) for 0-60 min to detect Mitofusin-2 and DRP1 expression (FIG. 16E, n=3) and actin served as equal loading, (n=3). RA FLS were treated with Syntenin-1 (1000 ng/ml) in the presence or absence of HIF1αi (2 μM) for 6 h to determine transcription of IL-1β (FIG. 16F, n=6), IL-6 (FIG. 16G, n=5), IL-8 (FIG. 16H, n=5) and CCL2 (I, n=6) by real-time RT-PCR. […] The number of cells in the scratch area was counted and compared to the untreated control, (K, n=4). RA FLS were treated with PBS or Syntenin-1 (1000 ng/ml) in the presence or absence of SDC-1 Ab (SDCab: 1:100), IL-5R Ab (IL5Ra; 2 μg/ml), or PDZli (PDZ1; 10 μM), and/or HIF1αi (2 μM) or mTORi ([…]) for 6 h before quantifying transcription levels of VEGF (FIG. 16L, n=5) and Notch1, FGF2, CXCL1, CXCL5 (FIG. 16K or 16M, n=8 or 7). Data are presented as mean±SEM; significant differences were determined by the Mann-Whitney test, 2way ANOVA, or one-way ANOVA. *p<0.05, **p<0.01, ***p<0.001, ****p<0.0001.\nRA FLS and HUVEC scratch assay. […] The number of cells in the scratch area was counted and compared to the untreated control."}, "[2]": {"test_system": "RA monocyte-differentiated MΦs", "assay": "CD14+CD86+GLUT1+ MΦ frequency by flow cytometry after Syntenin-1", "type": "cell-based, human", "conditions": "Syntenin-1 1000 ng/mL, 24 h; IL5Ra 2 μg/mL, PDZ1i 10 μM, mTORi 1 μM; FIGS. 3H, 3I", "experimental": "(B, C) RA MΦs were treated with PBS (ctrl) or Syntenin-1 (1000 ng/mL) for 6 hours and transcription levels of HIF1α (n=10) (FIG. 3B). GLUT1, RAPTOR, HK2, PFK2, PDK1, PKM2 (FIG. 3C) were quantified by qRT-PCR (n=6). […] FIGS. 3H, 3I) after 24 hours impact of treatment was determined on CD14+CD86+ GLUT1+ frequency by flow cytometry (n=4-5). […] Data are presented as mean±SEM; significant differences were determined by Mann-Whitney test, Student's t-test, two-way-ANOVA, or one-way ANOVA. *p<0.05, **p<0.01, ***p<0.001, ****p<0.0001. ANOVA, analysis of variance.\nFlow cytometry. Depending on the assay negatively selected human monocytes or human peripheral blood mononuclear cells from Rheumatoid Arthritis patients were stained with anti-CD14, anti-CD86, anti-CD206, anti-CD4 (BioLegend Inc.), or GLUT1 (Novus Biologicals) fluorescently labeled antibodies. Prior to intracellular staining, cells were stimulated with PMA (100 ng/ml) and ionomycin (1.5 μM; both Sigma-Aldrich) in the presence of Brefeldin A (eBioscience, San Diego, USA) for 3-4 h. To exclude dead cells, cells were stained by the ZombieViolet Fixable Viability Kit (BioLegend Inc.). […]\nSyntenin-1 stimulation and inhibition. […] Cells were subsequently harvested in TRIzol reagent (Life Technologies) or RIPA buffer (Cell Signaling Technology) for mRNA quantification and western blot analysis; conditioned media was collected for ELISA."}}}
{"smiles": "CO[C@H]1C[C@@H]2CC[C@@H](C)[C@@](O)(O2)C(=O)C(=O)N2CCCC[C@H]2C(=O)O[C@H]([C@H](C)C[C@@H]2CC[C@@H](OCCO)[C@H](OC)C2)CC(=O)[C@H](C)/C=C(\\C)[C@@H](O)[C@@H](OC)C(=O)[C@H](C)C[C@H](C)/C=C/C=C/C=C/1C", "note": "[mTORi, Everolimus]", "values": [{"measurement": "Syntenin-1-driven RA FLS migration", "setting": "[1]", "value": "intercepted"}, {"measurement": "Syntenin-1 reconfiguration of naïve cells into RA CD14+CD86+GLUT1+MΦs", "setting": "[2]", "value": "exclusively impaired"}]}
